Reference: ChEMBL document CHEMBL3045491, “Antituberculosis activity of hydrazones derived from 4-fluorobenzoic acid hydrazide” (2009)

Test system: Mycobacterium tuberculosis
Assay: Antitubercular activity against Mycobacterium tuberculosis H37Rv ATCC 27294 at 6.25 ug/ml by microplate alamar blue assay
Type: functional

Structure (SMILES)	inhibition at 6.25 µg/mL
C/C(=N\NC(=O)c1ccc(F)cc1)c1ccco1	53%
C/C(=N\NC(=O)c1ccc(F)cc1)c1ccncc1	53%
C/C(=N\NC(=O)c1ccc(F)cc1)c1cccs1	50%
O=C(N/N=C/c1c(Cl)cccc1Cl)c1ccc(F)cc1	85%
O=C(N/N=C/c1cccc(Oc2ccccc2)c1)c1ccc(F)cc1	84%
O=C(N/N=C/c1cc(Cl)cc(Cl)c1O)c1ccc(F)cc1	69%
O=C(N/N=C/c1cc(Cl)cc(Cl)c1)c1ccc(F)cc1	65%
O=C(N/N=C/c1ccc(Cl)cc1Cl)c1ccc(F)cc1	62%
CN(C)CCCOc1ccc(/C=N/NC(=O)c2ccc(F)cc2)cc1	58%
O=C(N/N=C/c1cccc(F)c1)c1ccc(F)cc1	52%
C/C(=N\NC(=O)c1ccc(F)cc1)c1ccc[nH]1	66%
C/C(=N\NC(=O)c1ccc(F)cc1)c1ccc(Cl)s1	64%
C/C(=N\NC(=O)c1ccc(F)cc1)c1ccccc1	59%
C/C(=N\NC(=O)c1ccc(F)cc1)c1ccc(Br)s1	59%
C=C/C(C)=N/NC(=O)c1ccc(F)cc1	56%
CC/C(=N\NC(=O)c1ccc(F)cc1)c1ccccc1	53%
